Reference: patent publication US20120083522A1, “MODULATION OF INFLAMMATORY RESPONSES BY FACTOR XI” (Isis Pharmaceuitcals, inc., priority 2009, published 2012)
In the oligonucleotide strings, read from the 5' end, every base follows the letter of its sugar. An asterisk marks phosphorothioate; unmarked linkages are phosphodiester. Other units and linkages are bracketed, terminal groups are in braces. A string of capitals states the bases alone. e = 2'-O-(2-methoxyethyl) (MOE); [5mC] = 5-methylcytosine; d = 2'-deoxy (DNA)

Tests used:
[1] = Tolerability in CD1 mice: organ weight (Example 17); format: in vivo; details: 50 mg/kg s.c. twice a week, 2 weeks, vs PBS control, normalized to body weight
Method: Three days after the last dose was administered to all groups, the mice were sacrificed.

[2] = system: OVA/alum-induced asthma model; assay: OVA-induced asthma model: mucus production (Example 13); format: in vivo, BALB/c mice
Method: (§1) The mice were divided into four treatment groups of 5 mice each. One group received subcutaneous injections of ISIS 404071 at a dose of 50 mg/kg twice a week for 4 weeks. One group of mice received subcutaneous injections of control oligonucleotide, ISIS 421208, which is a mismatch oligonucleotide sequence of ISIS 404071, at a dose of 50 mg/kg twice a week for 4 weeks. Two groups of mice received subcutaneous injections of PBS twice a week for 4 weeks. One PBS group remained untreated and served as the control group. The second PBS group and both the oligonucleotide treated groups were injected with OVA/alum on days 0 and 14 and nebulized with OVA in PBS on days 24, 25, and 26. The first OVA application served to sensitize the mice against OVA while the second was a challenge application to provoke an asthmatic reaction. Two days following the final dose, the mice were euthanized, bronchial lavage (BAL) was collected and analyses done.
Lung sections were stained with periodic acid […] (PAS) base stain that stains mucus, which is produced during asthma attacks (Rogers, D. F. Curr. Opin Pharmacol. 2004. 4: 241-250). The number of airways containing mucus as a percentage of the total airways in the lungs was evaluated.

[3] = system: DSS-induced colitis model; assay: Colitis Study B: body weight and colon length; format: in vivo, Swiss Webb mice
Method: In a first group of 8 Swiss Webb mice, 20 mg/kg of ISIS 404071 was injected subcutaneously twice a week for 3 weeks. In a second group of 8 Swiss Webb mice, 20 mg/kg of ISIS 404057 was subcutaneously injected twice a week for 3 weeks. In a third control group of 8 Swiss Webb mice, 20 mg/kg of ISISI 421208 was injected subcutaneously twice a week for 3 weeks. Two control groups of 8 mice each were injected with PBS twice a week for 3 weeks. After the oligonucleotide treatment, 4% DSS in water was administered ad libitum for 6 days to all the experimental groups and one PBS control group.
Mice in all groups were weighed at day 0 and daily after administration of DSS. Mice were sacrificed at the end of the study on day 7 after DSS was administered, their livers and colons were harvested for RNA analysis, and their body weights and colon lengths were measured.

[4] = system: murine Factor XI protein; assay: In vivo antisense inhibition of murine Factor XI: plasma protein analysis (Example 10); details: BALB/c mice; for % inhibition: Factor XI protein, relative to PBS control
Method: BALB/c mice were injected with 5 mg/kg, 10 mg/kg, 25 mg/kg, or 50 mg/kg of ISIS 404057 or ISIS 404071 twice a week for 3 weeks. A control group of mice was injected with phosphate buffered saline (PBS) twice a week for 3 weeks. Mice were sacrificed 5 days after receiving the last dose. Whole liver was harvested for RNA analysis and plasma was collected for protein analysis.
Results are presented as percent inhibition of Factor XI, relative to PBS control.

[5] = system: Factor XI mRNA; assay: Colitis Study E: Factor XI mRNA levels; format: in vivo, Swiss Webb mice; details: compared to untreated PBS control; for % inhibition of Factor XI mRNA levels: DSS-treated mice, 40 mpk
Method: Two groups 8 Swiss Webb mice were dosed with 40 mg/kg of ISIS 404071 injected subcutaneously twice a week for 3 weeks. Two control groups of 8 Swiss Webb mice were dosed with PBS subcutaneously twice a week for 3 weeks. Both the ASO treated groups and one of the control groups were then given 4% DSS in distilled water for 7 days ad libitum. One of the ASO and DSS treated groups was also given intravenous injections of 20 μg of recombinant human Factor XI protein (Haematologic Technologies Inc.) for 7 consecutive days, starting the day before DSS treatment. Mice were sacrificed at the end of the study on day 7 after DSS was administered.

[6] = system: DSS-induced colitis model; assay: Colitis Study A: colon tissue histopathology
[7] = system: OVA/alum-induced asthma model; assay: OVA-induced asthma model: BAL eosinophil recruitment (Example 13); format: in vivo, BALB/c mice
Method: The effect of antisense oligonucleotide inhibition of Factor XI and its role in ameliorating asthma was evaluated in an OVA/alum-induced asthma model. Administration of ovalbumin to animals is a well known method to induce […] and has been previously described by Henderson et al. (J. Exp. Med., 1996, 184: 1483-1494).
as §1
Bronchial asthma, even in its mild form, is characterized by local infiltration and activation of inflammatory and immunoeffector cells, including T lymphocytes, macrophages, eosinophils, and mast cells (Smith D. L. et al., Am. Rev. Respir. Dis. 1993. 148: 523-532). The effect of treatment with ISIS 404071 on bronchoalveolar lavage (BAL) eosinophil recruitment was assessed. BAL cells were stained with hemotoxylin and eosin (H&E). The results are presented in Table 49 as a percentage of total cells in BAL.

[8] = DSS-induced colitis, day 7, 20 mg/kg s.c. twice a week for 3 weeks, percent change compared to the PBS control

Row | Substance | Percent change in kidney weight [1] | mucus production in the lungs (in words) [2] | Mucus production, % airways containing mucus ([2]; BALB/c mice, 50 mg/kg s.c. twice a week for 4 weeks, PAS stain of lung sections) | body weight (in words) ([3]; Colitis Study B, FIG. 9) | Body weight [3, 8] | Colon length [3, 8] | Factor XI protein (in words) ([4]; 5-50 mg/kg twice a week for 3 weeks) | % inhibition ([4]; 5 mg/kg twice a week for 3 weeks) | % inhibition ([4]; 10 mg/kg twice a week for 3 weeks) | % inhibition ([4]; 25 mg/kg twice a week for 3 weeks) | % inhibition ([4]; 50 mg/kg twice a week for 3 weeks) | Factor XI levels (in words) ([5]; Colitis Study E, 40 mg/kg) | % inhibition of Factor XI mRNA levels ([5]; no human recombinant FXI) | % inhibition of Factor XI mRNA levels ([5]; plus human recombinant FXI 20 ug/mouse/day) | colon histology, lesions (in words) ([6]; FIG. 8) | colon histology, lesions (in words) ([6]; FIG. 8, listed as Factor XI) | mucosa ulcers ([6]; FIG. 8D, DSS control 2-4/animal) | BAL eosinophil recruitment (in words) [7] | Eosinophils ([7]; percentage of total cells in BAL, 50 mg/kg s.c. twice a week for 4 weeks)
1 | 416850 (antisense TGCACAGTTTCTGGCAGGCC; 5-10-5 gapmer, wing sugar chemistry not given here, further chemistry not given here) [compound 416850] | −10% |  |  |  |  |  |  |  |  |  |  |  |  |  |  |  |  |  | 
2 | TGGTAATCCACTTTCAGAGG (eT*eG*eG*eT*eA*dA*dT*d[5mC]*d[5mC]*dA*d[5mC]*dT*dT*dT*d[5mC]*eA*eG*eA*eG*eG) [ISIS 404071, 5-10-5 MOE gapmer targeting murine Factor XI, target start site 869] |  | decreased mucus production in the lungs | 34 % airways | did not have any significant change in body weight | −10% | −11% | significant dose-dependent reduction of Factor XI protein | 39% | 67% | 89% | 96% | significantly decreased | 82% | 83% | significantly fewer mucosa ulcerative lesions | significantly milder ulcerative colitis lesions | > 1 /animal | decreased the eosinophil recruitment | 32%
